Test results: PMC7399337, “Biological Properties and Absolute Configuration of Flavanones From Calceolaria thyrsiflora Graham” (Frontiers in Pharmacology, 2020)
Converted amounts (≈) assume the structure as drawn.

Legend:
bacterial growth = test system: bacterial growth; set-up: method as in Bravo et al., 2005; settings: high concentrations (1,000 µg/ml); ref Bravo et al., 2005; cited from earlier work
S. aureus MRSA 622-4 = assay: Antibacterial MIC, CLSI microdilution, human pathogens; assay type: cell-based; settings: 18 h; for MIC: Staphylococcus aureus, read-out: Minimum inhibitory concentration (MIC)
Description: (§1) Briefly, stock solutions (5 mg/ml) of compounds in DMSO were diluted in Mueller-Hinton broth (MHB) to the different two-fold assay concentrations. […] The obtained solution was added to MHB and serially two-fold diluted in a 96-well microplate. A sample of 100 μL of inoculum 1.5 × 10^6 colony forming unit (CFU) ml^-1 in MHB was added and then incubated at 37°C for 18 h. The assay was repeated three times. Wells containing MHB, 100 μL of inoculum, and DMSO served as negative controls.

S. aureus MRSA 97-7 = assay: as above; assay type: cell-based; settings: 18 h; for MIC: Staphylococcus aureus, read-out: Minimum inhibitory concentration (MIC)
Description: as §1

S. aureus NTCC8325-4 = assay: as above; assay type: cell-based; settings: for MIC: Staphylococcus aureus, NTCC83254, 18 h, read-out: Minimum inhibitory concentration (MIC)
Description: as §1

E. coli 33.1 = assay: as above; assay type: cell-based; settings: Escherichia coli; E. coli 33.1 (multi-resistant); 18 h; read-out: Minimum inhibitory concentration (MIC)
Description: as §1

E. coli ATCC25922 = assay: as above; assay type: cell-based; settings: Escherichia coli, 18 h, read-out: Minimum inhibitory concentration (MIC)
Description: as §1

5-hLOX [1] = molecular target: T1, 5-hLOX (Homo sapiens, UniProt P09917); assay: In vitro 5-hLOX enzyme assay (H2DCFDA fluorescence); assay type: biochemical; settings: for Type of inhibition: 5-hLOX
T1 construct: purchased Cayman Chemicals Inc. (Ann Arbor, MI, USA)
T1 sequence (P09917 1-674): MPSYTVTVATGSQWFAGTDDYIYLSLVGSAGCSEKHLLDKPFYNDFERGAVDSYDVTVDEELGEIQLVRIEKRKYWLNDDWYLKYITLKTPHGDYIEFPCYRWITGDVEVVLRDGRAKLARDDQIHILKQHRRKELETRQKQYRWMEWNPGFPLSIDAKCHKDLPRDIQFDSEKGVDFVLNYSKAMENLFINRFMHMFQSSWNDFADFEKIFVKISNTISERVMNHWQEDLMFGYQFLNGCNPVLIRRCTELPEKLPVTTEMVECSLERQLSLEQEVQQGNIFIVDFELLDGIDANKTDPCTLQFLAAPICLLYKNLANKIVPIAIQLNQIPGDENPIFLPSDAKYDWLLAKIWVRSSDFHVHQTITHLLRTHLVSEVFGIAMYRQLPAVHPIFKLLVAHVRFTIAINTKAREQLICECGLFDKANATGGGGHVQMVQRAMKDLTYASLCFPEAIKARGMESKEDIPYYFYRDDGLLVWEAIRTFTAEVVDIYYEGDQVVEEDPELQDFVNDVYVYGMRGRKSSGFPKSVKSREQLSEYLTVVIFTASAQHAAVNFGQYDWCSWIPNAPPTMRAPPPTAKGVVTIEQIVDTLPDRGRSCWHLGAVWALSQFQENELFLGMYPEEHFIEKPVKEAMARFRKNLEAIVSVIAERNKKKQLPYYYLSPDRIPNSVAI
Description: The commercially available enzyme 5-hLOX from Cayman Chemicals Inc. (Ann Arbor, MI, USA), was diluted (1:500) in the assay buffer. This contained 4-(2-hydroxyethyl)-1-piperazineethane sulfonic acid (HEPES) 50 mM, ethylenediamine tetraacetic acid (EDTA) 2 mM, adenosine triphosphate (ATP) 10 μM, and CaCl2 10 μM at pH 7.5) admixed with 10 μM of H2DCFDA. The reaction mixture was incubated for 15 min in the assay plate. Later, 280 μL of buffer and 10 μM of inhibitors were added per well and incubated for 30 min at 37°C. Finally, the reaction was started by adding a suitable concentration of arachidonic acid (0.5 μM) and the fluorescence was read in a multimode detector Synergy™ HT Multi-Mode Microplate Reader (Biotek, Bad Friedrichshall, Germany) […] after incubation at room temperature for 1 h. The IC50 values were obtained for analysis of oxidation of H2DCFDA dye to the highly fluorescent 2’,7’-dichloro-fluorescein (DCF) using the non-linear curve-fitting program. […] All data were collected in duplicate and the assays were performed on different days to ensure reproducibility.

B. cinerea = assay: In vitro fungicidal activity, radial mycelial growth test on PDA; assay type: cell-based; settings: Botrytis cinerea, 72 h, read-out: Percentage of inhibition on in vitro mycelial growth of B. cinerea
Description: (§2) A strain of Botrytis cinerea isolated from a naturally infected grape (Vitis vinifera) was used in all experiments. Isolated Phytophtora cinnamomi was provided by the Agricultural and Livestock Service of Valparaíso. Both strains were maintained on a potato dextrose agar (PDA) medium (DIFCO, Detroit, MI) at 4°C. The inoculum of both pathogens was grown on PDA and incubates in dark at 23°C for 5 days in the case of B. cinerea and 8 days for P. cinnamomi.
(§3) The fungicidal activity of flavanones, extracts, the negative control (C-) composed of solvent (1% ethanol), and the positive control (C+, commercial fungicide Captan® and metalaxil® for B. cinerea and P. cinnamomi, respectively) were assessed using the radial growth test technique on PDA medium as described ([Taborga et al., 2015]). All test samples were dissolved in ethanol (1%) and water, to obtain final concentrations of 50, 150, and 250 mg/L in the PDA medium. A plug (4 mm) of PDA medium with five-day-old mycelium colonies of the pathogen was placed at the center of a Petri dish with PDA medium with or without studied test samples and were incubated at 23°C in dark for 72 h (B. cinerea) and 120 h (P. cinnamomi). After incubation, the diameters of colonies were measured and the inhibition percentage was calculated as the average of three replicas compared to C-.

[2] = test system: B16-F10 mouse metastatic melanoma cells; assay: In vitro cytotoxic activity, CyQuant cell viability, 72 h; assay type: cell-based; settings: Mus musculus, B16-F10, 72 h, read-out: LC50 ± SD
Description: Cell viability was measured using a CyQuant® Direct Cell Proliferation Assay Kit (Life Technologies, Grand Island, NY, USA) following the manufacturer’s instruction. Briefly, 5,000 cells per well were seeded onto a flat-bottom 96-well plate in 200 μL final volume. Six hours after seeding, the culture medium was replaced by the medium containing the tested compounds at 0.01 to 100 µM concentrations in DMSO (0.1% final concentration) during 72 h. Untreated cells (medium containing only 0.1% DMSO) were used as controls. At the end of the incubation, 100 μL of culture medium was removed from each well and replaced by detection reagent solution provided by the kit (which is a 1:5 mixture of the reagent CyQUANT®, direct nucleic acid stain and the reagent labeled as CyQUANT® direct background suppressor I). […] At least four independent experiments were performed for each concentration.

[3] = test system: MDA-MB-231 human breast adenocarcinoma cells; assay: as above; assay type: cell-based; settings: Homo sapiens, MDA-MB-231, 72 h, read-out: LC50 ± SD
Description: (§4) The used cell lines include MDA-MB-231 human breast adenocarcinoma cells, B16-F10 mouse metastatic melanoma cells and MEF primary mouse embryonic fibroblast. Cells were maintained in a DMEM high glucose medium (Mediatech, Manassas, VA, USA) supplemented with 10% (MDA-MB-231 and B16-F10) or 15% (MEF) heat-inactivated fetal bovine serum (HyClone Laboratories, South Logan, USA), 100 IU ml^-1 penicillin and 100 μg ml^-1 streptomycin while maintained at 37°C in a 5% CO2 humidified atmosphere. Cell viability was measured using a CyQuant® Direct Cell Proliferation Assay Kit (Life Technologies, Grand Island, NY, USA) following the manufacturer’s instruction. Briefly, 5,000 cells per well were seeded onto a flat-bottom 96-well plate in 200 μL final volume. Six hours after seeding, the culture medium was replaced by the medium containing the tested compounds at 0.01 to 100 µM concentrations in DMSO (0.1% final concentration) during 72 h. Untreated cells (medium containing only 0.1% DMSO) were used as controls. At the end of the incubation, 100 μL of culture medium was removed from each well and replaced by detection reagent solution provided by the kit (which is a 1:5 mixture of the reagent CyQUANT®, direct nucleic acid stain and the reagent labeled as CyQUANT® direct background suppressor I). Cells were incubated for 1 h and fluorescence emission was measured at 535 nm with excitation at 480 nm in a microplate reader (Infinite 200 PRO, Tecan, Grödig, Austria). At least four independent experiments were performed for each concentration. The results from each experiment were transformed into percentage of controls and the LC50 values were graphically obtained from the dose-response curves. The LC50 value was obtained adjusting the dose-response curve to sigmoidal curves (variable slope) using the GraphPad Prisma 6.0 software ([GraphPad-Software, 2015]).

[4] = as above; assay type: cell-based; settings: mouse
Description: as §4

S. aureus ATCC = test system: S. aureus ATCC; set-up: method as in Bravo et al., 2005; settings: 250 µg/ml; ref Bravo et al., 2005; cited from earlier work
5-hLOX [5] = molecular target: T1, 5-hLOX; assay: In vitro 5-hLOX enzyme assay (H2DCFDA fluorescence); assay type: biochemical; settings: kinetic assays, inhibitor 0–1 μM, substrate 0.2–5 μM
P. cinnamomi = assay: In vitro fungicidal activity, radial mycelial growth test on PDA; assay type: cell-based, Phytophtora cinnamomi; settings: 120 h
Description: as §2, §3

SMILES: O=C1Nc2ccccc2OC1O (stereo not shown) [HBOA, 2-dydroxy-2H-1,4-benzoxazin-3(4H)-one]
- inhibitory activity of bacterial growth (bacterial growth): inhibitory activity

SMILES: CN[C@H](CC(C)C)C(=O)N[C@H]1C(=O)N[C@@H](CC(N)=O)C(=O)N[C@H]2C(=O)N[C@H]3C(=O)N[C@H](C(=O)N[C@H](C(=O)O)c4cc(O)cc(O)c4-c4cc3ccc4O)[C@H](O)c3ccc(c(Cl)c3)Oc3cc2cc(c3O[C@@H]2O[C@H](CO)[C@@H](O)[C@H](O)[C@H]2O[C@H]2C[C@](C)(N)[C@H](O)[C@H](C)O2)Oc2ccc(cc2Cl)[C@H]1O [Vancomicin, reference compound]
- Minimum inhibitory concentration (MIC) (S. aureus MRSA 622-4): 5 mg/L (≈ 3.45 µM)
- Minimum inhibitory concentration (MIC) (S. aureus MRSA 97-7): 25 mg/L (≈ 17.3 µM)
- Minimum inhibitory concentration (MIC) (S. aureus NTCC8325-4; 18 h): 3,5 µg/ml

SMILES: CC1(C)S[C@@H]2[C@H](NC(=O)[C@H](N)c3ccccc3)C(=O)N2[C@H]1C(=O)O [Ampicillin, reference compound]
- MIC (E. coli 33.1): > 100 mg/L
- MIC (E. coli ATCC25922): 60 mg/L (≈ 172 µM)

SMILES: COc1cc(C2CC(=O)c3c(O)cc(O)cc3O2)ccc1O (stereo not shown) [Compound 4, 3’-methoxy-4’,5,7-trihydroxyflavanone]
- inhibition at 10 µM (5-hLOX [1]; Flavanones at 10 µM): 11.7 ± 2.45%
- MIC (E. coli 33.1): > 100 mg/L
- MIC (S. aureus MRSA 622-4): > 100 mg/L
- MIC (E. coli ATCC25922): > 100 mg/L
- MIC (S. aureus MRSA 97-7): > 100 mg/L
- MIC (S. aureus NTCC8325-4): > 100 mg/L

SMILES: O=C1Nc2ccc(O)cc2OC1O (stereo not shown) [Compound 7-OH-HBOA, 2,7-dihydroxy-2H-1,4-benzoxazin-3(4H)-one]
- inhibitory activity of bacterial growth (bacterial growth): inhibitory activity

SMILES: CC(Cc1ccc(O)c(O)c1)C(C)Cc1ccc(O)c(O)c1 (stereo not shown) [NDGA, nordihydroguaiaretic acid, reference compound]
- Type of inhibition (5-hLOX [1]): competitive
- % of inhibition (5-hLOX) (5-hLOX [1]; Flavanones at 10 µM): 93 ± 5.870%

SMILES: O=C1C2CC=CCC2C(=O)N1SC(Cl)(Cl)Cl (stereo not shown) [Captan]
- inhibition at 50 µg/mL (B. cinerea; 50 mg/L): 94 ± 5.2%
- inhibition at 150 µg/mL (B. cinerea; 150 mg/L): 100 ± 0.1%
- inhibition at 250 µg/mL (B. cinerea; 250 mg/L): 100 ± 0.2%

SMILES: COc1cc([C@@H]2c3cc4c(cc3[C@@H](O[C@@H]3O[C@@H]5CO[C@@H](C)O[C@H]5[C@H](O)[C@H]3O)[C@H]3COC(=O)[C@H]23)OCO4)cc(OC)c1O [Etoposide, reference compound]
- CC50 [2]: 1.74 ± 0.32 µM
- CC50 [3]: 1.33 ± 0.28 µM
- CC50 at 72 h [4]: 1.03 ± 0.17 µM

SMILES: CC(=O)O[C@H]1C(=O)[C@@]2(C)[C@H]([C@H](OC(=O)c3ccccc3)[C@]3(O)C[C@H](OC(=O)[C@H](O)[C@@H](NC(=O)c4ccccc4)c4ccccc4)C(C)=C1C3(C)C)[C@]1(OC(C)=O)CO[C@@H]1C[C@@H]2O [Taxol, reference compound]
- CC50 [2]: 0.48 ± 0.08 µM
- CC50 [3]: 0.21 ± 0.48 µM
- CC50 at 72 h [4]: 0.4 ± 0.07 µM

SMILES: O=C(O)c1cc(O)c(O)c(O)c1 [gallic acid]
- inhibition activity of S. aureus ATCC (S. aureus ATCC): 67.2%
- inhibitory activity of bacterial growth (bacterial growth): inhibitory activity

SMILES: O=C1CC(c2ccc(O)c(O)c2)Oc2cc(O)cc(O)c21 (stereo not shown) [Compound 3, 5,7,3’,4’-Tetrahydroxyflavanone]
- Type of inhibition (5-hLOX [1]): competitive
- inhibition at 10 µM (5-hLOX [1]; Flavanones at 10 µM): 88 ± 0.678%
- IC50 (5-hLOX [1]; read-out: IC50 (5-hLOX)): 0.22 µM
- MIC (E. coli 33.1): > 100 mg/L
- MIC (S. aureus MRSA 622-4): > 100 mg/L
- MIC (E. coli ATCC25922): > 100 mg/L
- MIC (S. aureus MRSA 97-7): > 100 mg/L
- MIC (S. aureus NTCC8325-4): > 100 mg/L
- Ki (5-hLOX [5]): 0.07 µM

SMILES: O=C1C(O)Oc2ccccc2N1O (stereo not shown) [DIBOA, 2,4-dihydroxy-2H-1,4-benzoxazin-3(4H)-one]
- inhibitory activity of bacterial growth (bacterial growth): inhibitory activity

SMILES: COCC(=O)N(c1c(C)cccc1C)C(C)C(=O)OC (stereo not shown) [Metalaxil, reference compound]
- Percentage of inhibition on in vitro mycelial growth of P. cinnamomi (P. cinnamomi; 50 mg/L): 100 ± 0.2%
- Percentage of inhibition on in vitro mycelial growth of P. cinnamomi (P. cinnamomi; 150 mg/L): 100 ± 0.1%
- Percentage of inhibition on in vitro mycelial growth of P. cinnamomi (P. cinnamomi; 250 mg/L): 100 ± 0.1%

SMILES: O=c1[nH]c2ccccc2o1 [BOA, 2-benzoxazolinone]
- inhibitory activity of bacterial growth (bacterial growth): inhibitory activity
